Laboratory results reported in the CheMixHub ionic liquid set.
± gives the uncertainty stated by the source.

Assay: xn = mol fraction of the nth substance listed

CC[NH+](CC)CC.O=[N+]([O-])[O-] + CC[NH3+].O=[N+]([O-])[O-]
101 kPa, frequency 0.00293 MHz
Conditions	electrical conductivity [S/m]
293.15 K, x1 = 0.149	1.28
293.15 K, x1 = 0.1997	1.15
293.15 K, x1 = 0.25	0.97
293.15 K, x1 = 0.2993	0.86
293.15 K, x1 = 0.3475	0.79
298.15 K, x1 = 0.149	1.52
303.15 K, x1 = 0.3475	1.12
313.15 K, x1 = 0.3995	1.38
313.15 K, x1 = 0.4472	1.23
323.15 K, x1 = 0.0999	3.31
323.15 K, x1 = 0.3995	1.8

101 kPa
Conditions	viscosity [mPa·s]
293.15 K, x1 = 0.149	55.3
293.15 K, x1 = 0.1997	62.8
293.15 K, x1 = 0.25	69.1
293.15 K, x1 = 0.2993	76.9
293.15 K, x1 = 0.3475	83.5
298.15 K, x1 = 0.149	45.3
303.15 K, x1 = 0.3475	54.8
313.15 K, x1 = 0.3995	40.8
313.15 K, x1 = 0.4472	44.4
323.15 K, x1 = 0.0999	19.7
323.15 K, x1 = 0.3995	29.1
323.15 K, x1 = 0.5003	33.1
328.15 K, x1 = 0.149	18.1
328.15 K, x1 = 0.3995	25.1
328.15 K, x1 = 0.5003	28.3
328.15 K, x1 = 0.5485	27.4
333.15 K, x1 = 0.1997	17.5
333.15 K, x1 = 0.5003	24.7
333.15 K, x1 = 0.5485	23.9
338.15 K, x1 = 0.2993	17.3
338.15 K, x1 = 0.4472	20.3
343.15 K, x1 = 0.0499	11.6
343.15 K, x1 = 0.2993	15.3
348.15 K, x1 = 0.0999	11.1
348.15 K, x1 = 0.2993	13.7
348.15 K, x1 = 0.4472	15.7
353.15 K, x1 = 0.2993	12.4

CNC=O + CC[n+]1ccn(C)c1.F[B-](F)(F)F
298 K, 101 kPa
Conditions	electrical conductivity [S/m]
x1 = 0.21	2.08 ± 0.17
x1 = 0.47	2.73 ± 0.22
x1 = 0.66	2.95 ± 0.24

CC[n+]1ccn(C)c1.C[C@H](N)C(=O)[O-] + CC[n+]1ccn(C)c1.N#C[C-](C#N)C#N
101 kPa, x2 = 0
Conditions	viscosity [mPa·s]
308.15 K	137.5 ± 6.2
313.15 K	103.5 ± 4.1

CCCCn1cc[n+](CCOCC[n+]2ccn(CCCC)c2)c1.N#C[N-]C#N.N#C[N-]C#N + CC[n+]1ccn(C)c1.N#C[N-]C#N + O=S(=O)([N-]S(=O)(=O)C(F)(F)F)C(F)(F)F.[Li+]
100 kPa, x1 = 0.2561, x2 = 0.6541
Conditions	electrical conductivity [S/m]
298 K	0.527 ± 0.021
303 K	0.737 ± 0.029
313 K	0.921 ± 0.037
323 K	1.35 ± 0.054
333 K	1.74 ± 0.07
343 K	2.13 ± 0.085

CC[S+](CC)CCOCCOCC[S+](CC)CC.N#C[N-]C#N.N#C[N-]C#N + CC[n+]1ccn(C)c1.N#C[N-]C#N + O=S(=O)([N-]S(=O)(=O)C(F)(F)F)C(F)(F)F.[Li+]
100 kPa, x1 = 0.2666, x2 = 0.6449
Conditions	electrical conductivity [S/m]
298 K	0.501 ± 0.02
303 K	0.604 ± 0.024
313 K	0.841 ± 0.034
323 K	1.13 ± 0.045
333 K	1.44 ± 0.057
343 K	1.72 ± 0.069

O=S(=O)([O-])C(F)(F)F.[Li+] + CC[n+]1ccn(C)c1.O=S(=O)([N-]S(=O)(=O)C(F)(F)F)C(F)(F)F
electrical conductivity [S/m], 101 kPa
Conditions	288.15 K	298.15 K	333.15 K
x1 = 0.01919	0.57 ± 0.057	0.819 ± 0.082	2 ± 0.2
x2 = 0.9274	–	0.672 ± 0.067	1.71 ± 0.17
x2 = 0.9587	0.515 ± 0.052	0.766 ± 0.077	1.93 ± 0.19

O=S(=O)([O-])C(F)(F)F.[Li+] + CC[n+]1ccn(C)c1.O=S(=O)([O-])C(F)(F)F
electrical conductivity [S/m], 101 kPa
Conditions	x1 = 0.007746	x1 = 0.01537	x2 = 0.9697	x2 = 0.9746
288.15 K	0.625 ± 0.063	0.568 ± 0.057	–	0.535 ± 0.054
298.15 K	0.904 ± 0.091	0.837 ± 0.084	0.775 ± 0.078	0.792 ± 0.08
333.15 K	2.31 ± 0.23	2.14 ± 0.21	2.02 ± 0.2	2.05 ± 0.2

CC[n+]1ccn(C)c1.O=S(=O)([O-])C(F)(F)F + CN(C)C=O
100 kPa
Conditions	viscosity [mPa·s]
298.15 K, x2 = 0.1933	28.54 ± 0.68
303.15 K, x2 = 0.406	12.55 ± 0.62
308.15 K, x2 = 0.406	10.91 ± 0.61
313.15 K, x2 = 0.5976	4.5 ± 0.6
313.15 K, x2 = 0.7981	2.03 ± 0.6
318.15 K, x2 = 0.0917	19.61 ± 0.64
318.15 K, x2 = 0.1933	15.46 ± 0.63
318.15 K, x2 = 0.2995	11.68 ± 0.61
318.15 K, x2 = 0.6947	2.6 ± 0.6
323.15 K, x2 = 0.6947	2.42 ± 0.6
